Entries after “also recorded” stand apart in the source; their conditions may differ.
Experiments:
[1] = test system: murine L1210 cisplatin-sensitive leukemia cells; assay: Cytotoxicity: cell-growth inhibition in murine L1210 cisplatin-sensitive leukemia cells, 72-hour drug incubation; assay type: cell-based; conditions: for IC50: 72-hour drug incubation, read-out: ID50 (50% inhibitory drug concentration); for cytotoxicity compared with cisplatin: in vitro
Protocol: Studies were performed in vitro to assess the cytotoxicity of trans-[Pt(PyAc-N,O)Cl(NH3)] in comparison to several relevant Pt compounds. Cytotoxicity was monitored by cell-growth inhibition experiments in murine L1210 cisplatin-sensitive leukemia cells. The L1210 cell line has been used as a prognosticator of human antitumor activity for some time [Wolpert-DeFilippes, M. K., "Antitumor Activity of Cisplatin Analogs" in: Cisplatin. Current Status and Developments, Prestayko, A. W., Crooke, S. T., and Carter, S. K., eds, Academic Press, (London) 1980, pp. 183-192.]. A separate, non-treated culture was used as a control for these investigations.

[2] = in vivo; cited from earlier work
[3] = presence of a planar ligand, trans geometry; cited from earlier work
[4] = N,O-chelate formation (displacement of chloride by carboxylate, complex 1 to complex 2); assay type: physicochemical
Source text: The details of this synthesis may be found in Example 1 below. The preparation utilizes the anionic N,O-chelating ligand pyridine-2-yl-acetate (PyAc), which introduces a carboxylate donor cis to the nitrogen atom of the planar ligand. The bidentate ligand was used in its O-protected form, i.e., the corresponding methylester (PyAcMe). Formation of the N,O-chelate was achieved via the intermediate dichloro form, trans-[PtCl2 (NH3)(PyAcH)].H2 O (complex 1.H2 O) at neutral pH.
For the purposes of this invention, it should be further noted that the form for administration to patients may be either complex 1 or complex 2, since the former would spontaneously form the N-O chelate under physiological conditions.

| Molecule | IC50 [1] | cytotoxicity compared with cisplatin [1] | also measured |
| --- | --- | --- | --- |
| N.N.[Cl][Pt][Cl] [cisplatin, cis-[PtCl2 (NH3)2]] | 430 nM | – | – |
| N.N.[Cl][Pt+2][Cl] [transplatin, trans-[PtCl2 (NH3)2]] | 14000 nM | inactive | therapeutic/biological activity [2]: biologically inactive; also recorded: therapeutically inactive |
| N.[Cl][Pt][Cl].c1ccc2ncccc2c1 [trans-[PtCl2 (NH3)(quinoline)]] | – | – | in vitro cytotoxicity, effect of planar ligand [3]: dramatically enhances the in vitro cytotoxicity |
| cis-[Pt(PyAc-N,O)Cl(NH3)] | > 20000 nM | inactive | cytotoxicity compared with cisplatin ([1]; listed as cis-isomer): must be considered inactive |
| trans-[PtCl2 (NH3)(PyAcH)] [Complex 1] | – | – | displacement of chloride by carboxylate ([4]; e.g. in 10^-2 M HCl): remarkably facile; formation of complex 2 from complex 1 ([4]; pH values greater than 2): readily formed |
| trans-[Pt(PyAc-N,O)Cl(NH3)] [Complex 2] | 880 nM | comparably cytotoxic to cisplatin itself | solubility in water: 4 mmol 1-1 |

Source: US6001872A, “Water soluble transplatinum complexes with anti-cancer activity and method of using same” (priority 1999, dated 1999)
